According to the NIST ThermoML archive (doi:10.1016/j.fluid.2016.06.019):

Key:
[1] = refractive index (Na D-line) (dimensionless); wn = mass fraction of the nth substance listed; conditions: 298.15 K, 100 kPa, Liquid, Standard Abbe refractometry
[2] = wn = mass fraction of the nth substance listed; conditions: 298.15 K, 100 kPa, Liquid, Vibrating tube method
[3] = refractive index (Na D-line) (dimensionless); conditions: 298.15 K; 100 kPa; Liquid; Standard Abbe refractometry

O=S(=O)([O-])[O-].[Na+].[Na+] [sodium sulfate] + O
Conditions | mass density, [2] [kg/m3] | refractive index, [1]
w1 = 0.0005 | 997.6 | 1.33258
w1 = 0.0011 | 998.1 | 1.33266
w1 = 0.0053 | 1002 | 1.33331
w1 = 0.0108 | 1006.9 | 1.33414
w1 = 0.0214 | 1016.5 | 1.3357
w1 = 0.042 | 1035.1 | 1.33875
w1 = 0.0719 | 1062.6 | 1.34307
w1 = 0.0994 | 1088.5 | 1.34535

O [water] + O=S(=O)([O-])[O-].[Na+].[Na+]
Conditions | refractive index
[1], w2 = 0 | 1.3325

O [water]
Conditions | refractive index
[3] | 1.3325

O [water] + N.N.O=S(=O)(O)O
Conditions | refractive index
[1], w2 = 0 | 1.3325

N.N.O=S(=O)(O)O [ammonium sulfate] + O
Conditions | mass density, [2] [kg/m3] | refractive index, [1]
w1 = 0.0005 | 997.4 | 1.33259
w1 = 0.0011 | 997.7 | 1.33268
w1 = 0.0053 | 1000.3 | 1.33337
w1 = 0.0104 | 1003.3 | 1.33425
w1 = 0.0208 | 1009.4 | 1.33594
w1 = 0.0412 | 1021.2 | 1.33921
w1 = 0.0712 | 1038.4 | 1.34393
w1 = 0.1007 | 1055.3 | 1.34856
